{"source": "patent US8192962B2", "about": "“Processes for detecting toxic substances” (Daikin Industries, Ltd., priority 2001, dated 2012)", "system": "Transport facilitation protein genes", "assay": "DNA chip mRNA expression in yeast, transport facilitation protein genes (Table 5)", "type": "cell-based, Saccharomyces cerevisiae S288C", "procedure,_shortened": "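In this screen, yeast in logarithmic growth are challenged for two hours with a toxic substance at a non-lethal inhibitory concentration. Their mRNA, converted to Cy3- or Cy5-labeled cDNA, hybridizes at 65° C. to a chip spanning every yeast gene, and expression is expressed as a ratio to untreated cells.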", "data": [{"compound": "C=CC=O", "note": "[(14), acrolein]", "values": [{"measurement": "The level of expressed mRNA in the presence of chemical substance/The level of expressed mRNA in the absence of chemical substance", "setting": "yeast gene YBL030C", "value": 0.8}, {"measurement": "The level of expressed mRNA in the presence of chemical substance/The level of expressed mRNA in the absence of chemical substance", "setting": "yeast gene YBL099W", "value": 0.6}, {"measurement": "The level of expressed mRNA in the presence of chemical substance/The level of expressed mRNA in the absence of chemical substance", "setting": "yeast gene YBR052C", "value": 1.5}, {"measurement": "The level of expressed mRNA in the presence of chemical substance/The level of expressed mRNA in the absence of chemical substance", "setting": "yeast gene YBR068C", "value": 1.8}, {"measurement": "The level of expressed mRNA in the presence of chemical substance/The level of expressed mRNA in the absence of chemical substance", "setting": "yeast gene YBR127C", "value": 0.6}, {"measurement": "The level of expressed mRNA in the presence of chemical substance/The level of expressed mRNA in the absence of chemical substance", "setting": "yeast gene YBR132C", "value": 1.1}, {"measurement": "The level of expressed mRNA in the presence of chemical substance/The level of expressed mRNA in the absence of chemical substance", "setting": "yeast gene YBR207W", "value": 0.9}, {"measurement": "The level of expressed mRNA in the presence of chemical substance/The level of expressed mRNA in the absence of chemical substance", "setting": "yeast gene YBR293W", "value": 1.4}, {"measurement": "The level of expressed mRNA in the presence of chemical substance/The level of expressed mRNA in the absence of chemical substance", "setting": "yeast gene YBR294W", "value": 1.3}, {"measurement": "The level of expressed mRNA in the presence of chemical substance/The level of expressed mRNA in the absence of chemical substance", "setting": "yeast gene YBR295W", "value": 1.1}, {"measurement": "The level of expressed mRNA in the presence of chemical substance/The level of expressed mRNA in the absence of chemical substance", "setting": "yeast gene YBR298C", "value": 0.9}, {"measurement": "The level of expressed mRNA in the presence of chemical substance/The level of expressed mRNA in the absence of chemical substance", "setting": "yeast gene YCL025C", "value": 0.7}, {"measurement": "The level of expressed mRNA in the presence of chemical substance/The level of expressed mRNA in the absence of chemical substance", "setting": "yeast gene YCL038C", "value": 1.3}, {"measurement": "The level of expressed mRNA in the presence of chemical substance/The level of expressed mRNA in the absence of chemical substance", "setting": "yeast gene YCR024C-A", "value": 0.8}, {"measurement": "The level of expressed mRNA in the presence of chemical substance/The level of expressed mRNA in the absence of chemical substance", "setting": "yeast gene YCR037C", "value": 0.8}, {"measurement": "The level of expressed mRNA in the presence of chemical substance/The level of expressed mRNA in the absence of chemical substance", "setting": "yeast gene YCR098C", "value": 1.1}, {"measurement": "The level of expressed mRNA in the presence of chemical substance/The level of expressed mRNA in the absence of chemical substance", "setting": "yeast gene YDL128W", "value": 0.7}, {"measurement": "The level of expressed mRNA in the presence of chemical substance/The level of expressed mRNA in the absence of chemical substance", "setting": "yeast gene YDL198C", "value": 1.7}, {"measurement": "The level of expressed mRNA in the presence of chemical substance/The level of expressed mRNA in the absence of chemical substance", "setting": "yeast gene YDL210W", "value": 1.1}, {"measurement": "The level of expressed mRNA in the presence of chemical substance/The level of expressed mRNA in the absence of chemical substance", "setting": "yeast gene YDL245C", "value": 1.2}, {"measurement": "The level of expressed mRNA in the presence of chemical substance/The level of expressed mRNA in the absence of chemical substance", "setting": "yeast gene YDR038C", "value": 0.8}, {"measurement": "The level of expressed mRNA in the presence of chemical substance/The level of expressed mRNA in the absence of chemical substance", "setting": "yeast gene YDR039C", "value": 0.9}, {"measurement": "The level of expressed mRNA in the presence of chemical substance/The level of expressed mRNA in the absence of chemical substance", "setting": "yeast gene YDR086C", "value": 1.5}, {"measurement": "The level of expressed mRNA in the presence of chemical substance/The level of expressed mRNA in the absence of chemical substance", "setting": "yeast gene YDR270W", "value": 1.0}, {"measurement": "The level of expressed mRNA in the presence of chemical substance/The level of expressed mRNA in the absence of chemical substance", "setting": "yeast gene YDR298C", "value": 1.5}, {"measurement": "The level of expressed mRNA in the presence of chemical substance/The level of expressed mRNA in the absence of chemical substance", "setting": "yeast gene YDR342C", "value": 0.9}, {"measurement": "The level of expressed mRNA in the presence of chemical substance/The level of expressed mRNA in the absence of chemical substance", "setting": "yeast gene YDR343C", "value": 0.8}, {"measurement": "The level of expressed mRNA in the presence of chemical substance/The level of expressed mRNA in the absence of chemical substance", "setting": "yeast gene YDR345C", "value": 0.8}, {"measurement": "The level of expressed mRNA in the presence of chemical substance/The level of expressed mRNA in the absence of chemical substance", "setting": "yeast gene YDR387C", "value": 0.9}, {"measurement": "The level of expressed mRNA in the presence of chemical substance/The level of expressed mRNA in the absence of chemical substance", "setting": "yeast gene YDR497C", "value": 0.6}, {"measurement": "The level of expressed mRNA in the presence of chemical substance/The level of expressed mRNA in the absence of chemical substance", "setting": "yeast gene YEL027W", "value": 1.4}, {"measurement": "The level of expressed mRNA in the presence of chemical substance/The level of expressed mRNA in the absence of chemical substance", "setting": "yeast gene YEL063C", "value": 0.8}, {"measurement": "The level of expressed mRNA in the presence of chemical substance/The level of expressed mRNA in the absence of chemical substance", "setting": "yeast gene YEL065W", "value": 0.4}, {"measurement": "The level of expressed mRNA in the presence of chemical substance/The level of expressed mRNA in the absence of chemical substance", "setting": "yeast gene YER053C", "value": 1.3}, {"measurement": "The level of expressed mRNA in the presence of chemical substance/The level of expressed mRNA in the absence of chemical substance", "setting": "yeast gene YFL011W", "value": 0.8}, {"measurement": "The level of expressed mRNA in the presence of chemical substance/The level of expressed mRNA in the absence of chemical substance", "setting": "yeast gene YFL041W", "value": 1.0}, {"measurement": "The level of expressed mRNA in the presence of chemical substance/The level of expressed mRNA in the absence of chemical substance", "setting": "yeast gene YFL050C", "value": 1.0}, {"measurement": "The level of expressed mRNA in the presence of chemical substance/The level of expressed mRNA in the absence of chemical substance", "setting": "yeast gene YFL054C", "value": 0.9}, {"measurement": "The level of expressed mRNA in the presence of chemical substance/The level of expressed mRNA in the absence of chemical substance", "setting": "yeast gene YGL006W", "value": 0.9}, {"measurement": "The level of expressed mRNA in the presence of chemical substance/The level of expressed mRNA in the absence of chemical substance", "setting": "yeast gene YGL008C", "value": 1.2}, {"measurement": "The level of expressed mRNA in the presence of chemical substance/The level of expressed mRNA in the absence of chemical substance", "setting": "yeast gene YGL104C", "value": 1.0}, {"measurement": "The level of expressed mRNA in the presence of chemical substance/The level of expressed mRNA in the absence of chemical substance", "setting": "yeast gene YGL167C", "value": 0.8}, {"measurement": "The level of expressed mRNA in the presence of chemical substance/The level of expressed mRNA in the absence of chemical substance", "setting": "yeast gene YGL255W", "value": 1.0}, {"measurement": "The level of expressed mRNA in the presence of chemical substance/The level of expressed mRNA in the absence of chemical substance", "setting": "yeast gene YGR055W", "value": 1.2}, {"measurement": "The level of expressed mRNA in the presence of chemical substance/The level of expressed mRNA in the absence of chemical substance", "setting": "yeast gene YGR065C", "value": 1.3}, {"measurement": "The level of expressed mRNA in the presence of chemical substance/The level of expressed mRNA in the absence of chemical substance", "setting": "yeast gene YGR082W", "value": 0.9}, {"measurement": "The level of expressed mRNA in the presence of chemical substance/The level of expressed mRNA in the absence of chemical substance", "setting": "yeast gene YGR096W", "value": 1.2}, {"measurement": "The level of expressed mRNA in the presence of chemical substance/The level of expressed mRNA in the absence of chemical substance", "setting": "yeast gene YGR138C", "value": 0.9}, {"measurement": "The level of expressed mRNA in the presence of chemical substance/The level of expressed mRNA in the absence of chemical substance", "setting": "yeast gene YGR191W", "value": 0.7}, {"measurement": "The level of expressed mRNA in the presence of chemical substance/The level of expressed mRNA in the absence of chemical substance", "setting": "yeast gene YGR197C", "value": 1.5}, {"measurement": "The level of expressed mRNA in the presence of chemical substance/The level of expressed mRNA in the absence of chemical substance", "setting": "yeast gene YGR224W", "value": 0.9}, {"measurement": "The level of expressed mRNA in the presence of chemical substance/The level of expressed mRNA in the absence of chemical substance", "setting": "yeast gene YGR260W", "value": 0.7}, {"measurement": "The level of expressed mRNA in the presence of chemical substance/The level of expressed mRNA in the absence of chemical substance", "setting": "yeast gene YGR281W", "value": 0.9}]}]}
